Patent US7196074B2, “Methods of making, using and pharmaceutical formulations comprising 7α, 11β-dimethyl-17β-hydroxyestra-4, 14-dien-3-one and 17 esters thereof” (The United States of America as represented by the …, priority 2000, dated 2007)

Columns and labels:
ventral prostate weight = assay: Oral androgenic potency, ventral prostate weight assay in orchidectomized immature rats (gavage daily for seven days); type: in vivo, Sprague-Dawley rats; conditions: ventral prostate weight; for oral androgenic activity, times as potent as methyltestosterone: gavage daily for 7 days in 10% ethanol/sesame oil (oily carrier)
Method: (§1) Immature (about 21-day-old) Sprague-Dawley rats were orchidectomized under anesthesia, and randomly assignee to groups of ten animals for each dose level of the active undergoing testing. Each active was dissolved in 10% ethanol/sesame oil and administered by gavage (oral) each day for seven days beginning on the date of the orchidectomy. The animals were sacrificed 24 hours after the last dose, and the ventral prostate and seminal vesicles were excised, cleaned of fat and connective tissue, blotted on moist filter paper and weighed to the nearest 0.1 mg. See, e.g., Hershberger, L. et al, Myotrophic Activity of 19-nortestosterone And Other Steroids Determined By Modified Levator And Muscle Method, Proc. Soc. Exptl. Biol. Med 83 175–180 (1953). Regression analysis was performed by conventional methods using a PROPHET data management system. See, e.g., Bliss, C., The Statistics of Bioassay (Academic Press, New York, 1952); Hollister, C., Nucleic Acids Res. 16 1873–75 (1988). Ventral prostate weight was used as the endpoint because it is the sensitive organ to androgenic stimulation.
as §1, with “(oral) or subcutaneous injection” for “(oral)”, “mg.” for “mg. See, e.g., Hershberger, L. et al, Myotrophic Activity of 19-nortestosterone And Other Steroids Determined By Modified Levator And Muscle Method, Proc. Soc. Exptl. Biol. Med 83 175–180 (1953).”, “system.” for “system. See, e.g., Bliss, C., The Statistics of Bioassay (Academic Press, New York, 1952); Hollister, C., Nucleic Acids Res. 16 1873–75 (1988).”
Immature (about 21-day-old) Sprague-Dawley rats were orchidectomized under anesthesia, and randomly assignee to groups of ten animals for each dose level of the active undergoing testing. Four dosage forms were prepared. The first two forms constituted a solution of each active in 10% ethanol/sesame oil. The third and fourth dosage forms constituted a suspension of each active in an aqueous carrier (as described in Example 2, supra). These dosage forms were then administered by gavage (oral) to separate animal groups each day for seven days beginning on the date of the orchidectomy. Each carrier was also administered (alone) to separate groups of animals as a control. The animals were sacrificed 24 hours after the last dose, and the ventral prostate and seminal vesicles were excised, cleaned of fat and connective tissue, blotted on moist filter paper and weighed to the nearest 0.1 mg. See, e.g., Hershberger, L. et al, Myotrophic Activity of 19-nortestosterone And Other Steroids Determined By Modified Levator And Muscle Method, Proc. Soc. Exptl. Biol. Med. 83 175–180 (1953). Regression analysis was performed by conventional methods using a PROPHET data management system. See, e.g., Bliss, C., The Statistics of Bioassay (Academic Press, New York, 1952); Hollister, C., Nucleic Acids Res. 16 1873–75 (1988). Ventral prostate weight was used as the endpoint because it is the sensitive organ to androgenic stimulation.
Immature (about 21 day old) Sprague male rats were orchidectomized under anesthesia, and randomly assignee to groups often animals for each dose level of the active undergoing testing. Animals were maintained under standard conditions of housing and had free access to food and water. Illumination was controlled for 14 hour periods of light and 10 hours of darkness. Each active was dissolved in 10% ethanol/sesame oil and administered by gavage (oral) each day for seven days beginning on the date of the orchidectomy. […]

[1] = Serum levels of the free alcohol after single subcutaneous injection of ester; type: in vivo, Sprague-Dawley rats; conditions: single subcutaneous 0.6 mg suspended in aqueous carrier; 10 week observation period, FIG. 10
Method: Immature (about 21-day-old) Sprague-Dawley rats were orchidectomized under anesthesia, and randomly assignee to groups of 40 or more. Animals received a single subcutaneous injection of 0.6 mg of each ester in 0.2 ml of an aqueous suspending carrier and/or oily carrier (10% ethanol/90% sesame oil or ethyl oleate) on the date of the orchidectomy. In cases where the ester was not solid at room temperature, 10% ethanol/sesame oil or ethyl oleate was used as the carrier. In this example, the carrier used to provide the aqueous suspension was formulated as follows: 1 g benzyl alcohol, 0.5 g sodium carboxylethyl cellulose 50, 0.376 g disodium hydrogen phosphate dihydrate, 1.495 g sodium dihydrogen phosphate dihydrate, with water for injection (WFI) being added to bring volume of the carrier up to 100 ml.

[2] = gavage daily for 7 days in 10% ethanol/sesame oil

Structure (SMILES) | oral androgenic activity, times as potent as methyltestosterone (ventral prostate weight) [times] | oral androgenic potency relative to methyltestosterone in the same aqueous carrier (ventral prostate weight; gavage daily for 7 days, suspension in aqueous carrier) [times] | oral androgenic activity, times as potent as testosterone bucyclate (1781 V-1) (ventral prostate weight; [2]) | oral androgenic activity, times as potent as the free alcohol (1321 D) (ventral prostate weight; [2]) | oral androgenic activity, times more potent than testosterone (111-C) (ventral prostate weight; [2]) | oral androgenic activity, times more potent than testosterone enanthate (112a) (ventral prostate weight; [2]) | serum levels of the free alcohol (7α,11β-dimethyl-19-nortestosterone) [1]
CCCCCCCCCCC(=O)O[C@H]1CC[C@H]2[C@H]3[C@H]([C@@H](C)C[C@]12C)[C@H]1CCC(=O)C=C1C[C@H]3C [Compound II, 7α,11β-dimethyl-17β-hydroxyestr-4-en-3-one 17-undecanoate] | 2.36 | 0.95 |  |  |  |  | 
CCCC[C@H]1CC[C@H](C(=O)O[C@H]2CC[C@H]3[C@H]4[C@H]([C@@H](C)C[C@]23C)[C@H]2CCC(=O)C=C2C[C@H]4C)CC1 (relative stereo) [Compound I, 7α,11β-Dimethyl-17β-hydroxy-4-estren-3-one 17β-trans-4-n-butylcyclohexane carboxylate] | 3.77 |  | at least 4 times | at least 4 times | 10–100 times | 10–100 times | highest levels of the free alcohol
